Experimental data published in patent US20140271767A1, “BIOCOMPATIBLE HYDROGEL POLYMER MATRIX FOR DELIVERY OF CELLS” (Medicus Biosciences LLC, priority 2013, published 2014).

Assay: Drug elution from polymer (UV-Vis)
Assay type: physicochemical
Conditions: within the first three days; Nolvasan polymer, 2% chlorhexidine dose (50 mg), 2 mL PBS per 1 g polymer, 37° C.
Experimental: A Thermo Scientific GENESYS 10S UV-Vis spectrophotometer was used to quantify the release of various drugs from several polymers. First, the reference drug or drug solution was dissolved in an appropriate solvent. Typically, phosphate buffered saline (PBS), ethanol or dimethylsulfoxide (DMSO) were used as the solvent. Next, the optimal absorption peak for identifying and quantifying the drug was determined by performing a scan of the drug solution between 200 and 1000 nm. With the absorption peak selected, a reference curve was established by measuring the peak absorbance for various concentrations of the drug. […]
Elution samples were collected daily by decanting the PBS solution from the polymer. The volume of sample collected was recorded. […] The elution sample was analyzed by first diluting the sample in the appropriate solvent using analytical pipettes such that the measured absorbance was in the range determined by the reference curve. The dilution factor was recorded. The drug concentration was calculated from the measured absorbance via the reference curve and the dilution factor. The drug amount was calculated by multiplying the drug concentration with the sample volume. The percent elution for that day was calculated by dividing the drug amount by the total amount of drug administered. […]

## [H]/N=C(\N/C(=N/[H])NCCCCCCNC(=N)NC(=N)Nc1ccc(Cl)cc1)Nc1ccc(Cl)cc1 [chlorhexidine]
  chlorhexidine released from polymer: Almost half
